The values that follow come from ChEMBL document CHEMBL1128052, “Further structure-activity-relationship studies on A/C/D-ring analogs of complement inhibitor K-76” (Bioorg Med Chem Lett, 1995).

The species named for one experiment is Homo sapiens. Put plainly: Inhibitory concentration required to inhibit human complement induced hemolysis by 50%. In kind it is functional, organism-based.
Experiment [1] is described as follows: Intrinsic Lytic Activity required to cause 50% hemolysis in the absence of complement. In kind it is functional, Ovis aries.
Experiment [2] is described as follows: Intrinsic Lytic Activity required to cause 50% hemolysis in the absence of complement; Not bioassayed. In kind it is functional, Ovis aries.

In the experiment listed under Homo sapiens, `CC1=CCC([C@]2(C)Cc3c(Oc4ccccc4)cc(C(=O)O)cc3O2)CC1` (stereo partly specified) yielded an IC50 above 824 µM. Besides, in experiment [1], the EC50 was below 200 µM.

Compound `CC1=CCC([C@]2(C)Cc3c(O)cc(C=O)cc3O2)CC1` (stereo partly specified) showed an IC50 in the experiment filed under Homo sapiens of 515 µM. This compound came in with an EC50 in experiment [1] below 280 µM.

Regarding `COc1ccc(C(=O)O)c2c1C[C@@](C)(C1CC=C(C)CC1)O2` (stereo partly specified), in the experiment listed under Homo sapiens, the IC50 is 380 µM. Besides, the concentration giving a half-maximal response (EC50) result in experiment [2] is “Not bioassayed”.

On to `CC1=CCC([C@]2(C)Cc3c(O)cc(C(=O)O)cc3O2)CC1` (stereo partly specified), for which inhibition in the experiment filed under Homo sapiens was half-maximal at 730 µM (IC50). The compound also returned a 50% effective concentration (EC50) in experiment [1] above 1040 µM.

Take `COc1ccc(C(=O)O)c2c1C[C@](C)(C1CC[C@](C)(O)[C@H](O)C1)O2` (stereo partly specified): the IC50 in the experiment filed under Homo sapiens turned out to be 1600 µM. Further, in experiment [2], the concentration for a half-maximal effect (EC50) result is “Not bioassayed”.

As to `C[C@@H]1CCC2C(C)(C)[C@H](O)[C@H](O)C[C@]2(C)[C@@]12Cc1c(O)cc(C(=O)O)c(C=O)c1O2` (stereo partly specified), the IC50 in the experiment listed under Homo sapiens turned out to be 680 µM. Also, in experiment [1], the concentration for a half-maximal effect (EC50) was above 680 µM.

As to `COc1cc(C=O)cc2c1C[C@@](C)(C1CC=C(C)CC1)O2` (stereo partly specified), the concentration for half-maximal inhibition (IC50) in the experiment listed under Homo sapiens is above 1050 µM. The compound further yielded a half-maximal effective concentration (EC50) in experiment [1] above 1050 µM.

Take `CC1=CCC([C@@]2(C)Cc3c(O)ccc(C(=O)O)c3O2)CC1` (stereo partly specified): the IC50 in the experiment filed under Homo sapiens turned out to be 2100 µM. Moreover, the EC50 result in experiment [2] is on record as “Not bioassayed”.

As to `COc1ccc(C(=O)O)c2c1C[C@](C)(C1CC=C(C)CC1)O2` (stereo partly specified), in the experiment listed under Homo sapiens, the IC50 stood at 680 µM. In addition, in experiment [2], the EC50 entry is on record as “Not bioassayed”.

As for `CC1=CCC([C@]2(C)Cc3c(Oc4ccccc4)cc(C=O)cc3O2)CC1` (stereo partly specified), the 50% inhibitory concentration (IC50) in the experiment filed under Homo sapiens is above 862 µM. This compound gave an EC50 in experiment [1] above 862 µM.

In the experiment filed under Homo sapiens, `COc1cc(C(=O)O)cc2c1C[C@@](C)(C1CC=C(C)CC1)O2` (stereo partly specified) displayed a half-inhibitory concentration (IC50) above 1000 µM. It took 660 µM to reach a half-maximal effect in experiment [1] (EC50).

Compound `COc1cc(C(=O)O)cc2c1CC(C)(C1CC[C@](C)(O)[C@H](O)C1)O2` (stereo partly specified) had an IC50 in the experiment listed under Homo sapiens above 892 µM. In addition, the EC50 in experiment [1] was above 892 µM.

Take `CC1=CCC([C@]2(C)Cc3c(O)ccc(C(=O)O)c3O2)CC1` (stereo partly specified): it took 2400 µM to reach half-maximal inhibition in the experiment filed under Homo sapiens (IC50). Besides, the EC50 entry in experiment [2] is “Not bioassayed”.

In general, IC50 refers to the concentration that gives 50% inhibition. Read a low IC50 as inhibition by little substance. The term EC50 denotes the concentration at which the effect is half-maximal. High values mean a need for much substance, low ones an effect from little substance.
